# Assay results as given in patent publication US20240199587A1, “HETEROCYCLIC COMPOUNDS” (Hoffmann-La Roche Inc., priority 2021, published 2024).
# Target: T1, MAGL (Homo sapiens, UniProt Q99685)
# T1 sequence (Q99685 1-303): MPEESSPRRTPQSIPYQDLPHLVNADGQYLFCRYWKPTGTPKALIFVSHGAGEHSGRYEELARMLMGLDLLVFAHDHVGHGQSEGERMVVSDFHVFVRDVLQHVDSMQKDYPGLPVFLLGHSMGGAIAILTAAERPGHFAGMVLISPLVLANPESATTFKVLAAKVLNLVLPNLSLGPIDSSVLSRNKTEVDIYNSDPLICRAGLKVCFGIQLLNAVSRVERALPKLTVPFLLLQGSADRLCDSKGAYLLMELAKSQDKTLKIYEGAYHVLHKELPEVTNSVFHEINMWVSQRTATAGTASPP
# Assay: 2-AG assay (MAGL inhibitory activity, hydrolysis of 2-arachidonoylglycerol to arachidonic acid followed by mass spectrometry)
# Assay type: biochemical
# Settings: 8 μM 2-arachidonoylglycerol, 15 min pre-incubation, 30 min incubation at RT, RapidFire MS readout
# Outline: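 Human MAGL ([…] final) pre-incubated 15 min at RT with compound in 50 mM TRIS, 1 mM EDTA, 0.01% Tween-20, 2.5% DMSO; 8 μM 2-AG then added for 30 min at RT. Acetonitrile quench with d8-arachidonic acid; arachidonic acid measured by RapidFire SPE–MS/MS, activity from arachidonic acid/d8 ratio.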
row,IC50 [nM],SMILES
1,0.56,"O=C(N1CC(c2ccc(N3CC[C@H](C(F)(F)F)C3)nc2)C1)N1CC2(CC(n3cnc(C4CC4)n3)C2)C1 [Example 476, [6-(3-cyclopropyl-1,2,4-triazol-1-yl)-2-azaspiro[3.3]heptan-2-yl]-[3-[6-[(3S)-3-(trifluoromethyl)pyrrolidin-1-yl]-3-pyridyl]azetidin-1-yl]methanone]"
2,0.97,"O=C(N1CC(c2ccc(NC3(C(F)(F)F)CC3)nc2)C1)N1CC2(CC(n3cnc(C4CC4)n3)C2)C1 [Example 477, [6-(3-cyclopropyl-1,2,4-triazol-1-yl)-2-azaspiro[3.3]heptan-2-yl]-[3-[6-[[1-(trifluoromethyl)cyclopropyl]amino]-3-pyridyl]azetidin-1-yl]methanone]"
3,4.07,"O=C(N1CC(c2cnc(N3CC[C@H](C(F)(F)F)C3)nc2)C1)N1CC2(CC(n3cnc(C4CC4)n3)C2)C1 [Example 481, [6-(3-cyclopropyl-1,2,4-triazol-1-yl)-2-azaspiro[3.3]heptan-2-yl]-[3-[2-[(3S)-3-(trifluoromethyl)pyrrolidin-1-yl]pyrimidin-5-yl]azetidin-1-yl]methanone]"
4,1.26,"O=C(N1CC(c2cnc(N3CC[C@@H](C(F)(F)F)C3)nc2)C1)N1CC2(CC(n3cnc(C4CC4)n3)C2)C1 [Example 482, [6-(3-cyclopropyl-1,2,4-triazol-1-yl)-2-azaspiro[3.3]heptan-2-yl]-[3-[2-[(3R)-3-(trifluoromethyl)pyrrolidin-1-yl]pyrimidin-5-yl]azetidin-1-yl]methanone]"
5,26.7,"CS(=O)(=O)c1cccc(CN2CCC3(CC2)CN(C(=O)N2CC4(CC(n5cnc(C6CC6)n5)C4)C2)C3)c1 [Example 485, [6-(3-cyclopropyl-1,2,4-triazol-1-yl)-2-azaspiro[3.3]heptan-2-yl]-[7-[(3-methylsulfonylphenyl)methyl]-2,7-diazaspiro[3.5]nonan-2-yl]methanone]"
6,14.6,"CS(=O)(=O)c1ccc(CN2CCC3(CC2)CN(C(=O)N2CC4(CC(n5cnc(C6CC6)n5)C4)C2)C3)cc1 [Example 486, [6-(3-cyclopropyl-1,2,4-triazol-1-yl)-2-azaspiro[3.3]heptan-2-yl]-[7-[(4-methylsulfonylphenyl)methyl]-2,7-diazaspiro[3.5]nonan-2-yl]methanone]"
7,6.78,"CS(=O)(=O)c1ccc(CC2CC3(C2)CN(C(=O)N2CC4(CC(n5cnc(C6(O)CC6)n5)C4)C2)C3)cc1 [Example 491, [6-[3-(1-hydroxycyclopropyl)-1,2,4-triazol-1-yl]-2-azaspiro[3.3]heptan-2-yl]-[6-[(4-methylsulfonylphenyl)methyl]-2-azaspiro[3.3]heptan-2-yl]methanone]"
8,11.1,"O=C(N1CC(c2ccc(NC3(C(F)(F)F)CC3)nc2)C1)N1CC2(CC(n3cnc(C4(O)CC4)n3)C2)C1 [Example 492, [6-[3-(1-hydroxycyclopropyl)-1,2,4-triazol-1-yl]-2-azaspir[3.3]heptan-2-yl]-[3-[6-[[1-(trifluoromethyl)cyclopropyl]amino]-3-pyridyl]azetidin-1-yl]methanone]"

# More lines, now with the values behind:
row,SMILES,IC50 [nM]
1,"O=C(N1CC2(CC(n3cnc(C4CC4)n3)C2)C1)N1CC2(CN(Cc3cnc(C(F)(F)F)cn3)C2)C1 [Example 473, [6-(3-cyclopropyl-1,2,4-triazol-1-yl)-2-azaspiro[3.3]heptan-2-yl]-[6-[[5-(trifluoromethyl)pyrazin-2-yl]methyl]-2,6-diazaspiro[3.3]heptan-2-yl]methanone]",11.4
2,"O=C(N1CC2(CC(n3cnc(C4CC4)n3)C2)C1)N1CC2(C1)CN(S(=O)(=O)C13CC(C(F)(F)F)(C1)C3)C2 [Example 474, [6-(3-cyclopropyl-1,2,4-triazol-1-yl)-2-azaspiro[3.3]heptan-2-yl]-[2-[[3-(trifluoromethyl)-1-bicyclo[1.1.1]pentanyl]sulfonyl]-2,6-diazaspiro[3.3]heptan-6-yl]methanone]",24.5
3,"CS(=O)(=O)c1cc(F)ccc1CC1CC2(C1)CN(C(=O)N1CC3(CC(n4cnc(C5CC5)n4)C3)C1)C2 [Example 475, [6-(3-cyclopropyl-1,2,4-triazol-1-yl)-2-azaspiro[3.3]heptan-2-yl]-[6-[(4-fluoro-2-methylsulfonyl-phenyl)methyl]-2-azaspiro[3.3]heptan-2-yl]methanone]",0.44
4,"O=C(N1CC(c2ccc(NCC3(C(F)(F)F)CC3)cn2)C1)N1CC2(CC(n3cnc(C4CC4)n3)C2)C1 [Example 478, [6-(3-cyclopropyl-1,2,4-triazol-1-yl)-2-azaspiro[3.3]heptan-2-yl]-[3-[5-[[1-(trifluoromethyl)cyclopropyl]methylamino]-2-pyridyl]azetidin-1-yl]methanone]",0.74
5,"O=C(N1CC(c2cnc(N3CC(C(F)(F)F)C3)nc2)C1)N1CC2(CC(n3cnc(C4CC4)n3)C2)C1 [Example 479, [6-(3-cyclopropyl-1,2,4-triazol-1-yl)-2-azaspiro[3.3]heptan-2-yl]-[3-[2-[3-(trifluoromethyl)azetidin-1-yl]pyrimidin-5-yl]azetidin-1-yl]methanone]",7.5
6,"CS(=O)(=O)c1ccc(CC2CC3(C2)CN(C(=O)N2CC4(CC(n5cnc(C6CC6)n5)C4)C2)C3)c(F)c1 [Example 483, [6-(3-cyclopropyl-1,2,4-triazol-1-yl)-2-azaspiro[3.3]heptan-2-yl]-[6-[(2-fluoro-4-methylsulfonyl-phenyl)methyl]-2-azaspiro[3.3]heptan-2-yl]methanone]",0.16
7,"O=C(N1CC2(CCN(S(=O)(=O)C34CC(C(F)(F)F)(C3)C4)CC2)C1)N1CC2(CC(n3cnc(C4CC4)n3)C2)C1 [Example 484, [6-(3-cyclopropyl-1,2,4-triazol-1-yl)-2-azaspiro[3.3]heptan-2-yl]-[7-[[3-(trifluoromethyl)-1-bicyclo[1.1.1]pentanyl]sulfonyl]-2,7-diazaspiro[3.5]nonan-2-yl]methanone]",19.5
8,"O=C(N1CC2(CC(Cc3cnc(C(F)(F)F)cn3)C2)C1)N1CC2(CC(n3cnc(C4(O)CC4)n3)C2)C1 [Example 487, [6-[3-(1-hydroxycyclopropyl)-1,2,4-triazol-1-yl]-2-azaspiro[3.3]heptan-2-yl]-[6-[[5-(trifluoromethyl)pyrazin-2-yl]methyl]-2-azaspiro[3.3]heptan-2-yl]methanone]",3.93
9,"CS(=O)(=O)c1ccc(CC2CC3(C2)CN(C(=O)N2CC4(CC(n5cnc(C6CC6)n5)C4)C2)C3)nc1 [Example 488, [6-(3-cyclopropyl-1,2,4-triazol-1-yl)-2-azaspiro[3.3]heptan-2-yl]-[6-[(5-methylsulfonyl-2-pyridyl)methyl]-2-azaspiro[3.3]heptan-2-yl]methanone]",4.41
10,"CS(=O)(=O)c1cncc(CC2CC3(C2)CN(C(=O)N2CC4(CC(n5cnc(C6CC6)n5)C4)C2)C3)c1 [Example 489, [6-(3-cyclopropyl-1,2,4-triazol-1-yl)-2-azaspiro[3.3]heptan-2-yl]-[6-[(5-methylsulfonyl-3-pyridyl)methyl]-2-azaspiro[3.3]heptan-2-yl]methanone]",3.28
11,"CS(=O)(=O)c1cccc(CC2CC3(C2)CN(C(=O)N2CC4(CC(n5cnc(C6(O)CC6)n5)C4)C2)C3)c1 [Example 490, [6-[3-(1-hydroxycyclopropyl)-1,2,4-triazol-1-yl]-2-azaspiro[3.3]heptan-2-yl]-[6-[(3-methylsulfonylphenyl)methyl]-2-azaspiro[3.3]heptan-2-yl]methanone]",6.69
